Laboratory results: PubChem BioAssay AID248 (DTP/NCI, 2004)
Inconclusive results and toxic doses are left out. Rule as the data show it: active = T/C of 150% or more; inactive = T/C below 125%.

System: L1210 leukemia ip in BDF1 mice, survival T/C
Experiment: NCI In Vivo Anticancer Drug Screen. Data for tumor model L1210 Leukemia (intraperitoneal) in B6D2F1 (BDF1) mice
Details: endpoint: mean survival time, higher = longer survival
How it was run: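 Value reflects the ratio of survival in compound-treated mice to survival in vehicle-treated controls, with both groups carrying the same transplanted tumor.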

[1] = dose: 100.0 mg/kg/injection, schedule: Q01DX001 (ip), vehicle: saline
[2] = dose: 200.0 mg/kg/injection, schedule: Q01DX001 (ip), vehicle: saline
[3] = dose: 400.0 mg/kg/injection, schedule: Q01DX001 (ip), vehicle: saline

Measured: T/C

O=[N+]([O-])c1ccc(/C=N/C(/N=C/c2ccc([N+](=O)[O-])cc2)c2ccc([N+](=O)[O-])cc2)cc1
inactive: dose: 75.0 mg/kg/injection, schedule: Q01DX009 (ip), vehicle: carboxymethylcellulose (CMC) 94 % of control | dose: 100.0 mg/kg/injection, schedule: Q04DX003 (ip), vehicle: carboxymethylcellulose (CMC) 97 % of control | dose: 150.0 mg/kg/injection, schedule: Q01DX009 (ip), vehicle: carboxymethylcellulose (CMC) 90 % of control | dose: 200.0 mg/kg/injection, schedule: Q04DX003 (ip), vehicle: carboxymethylcellulose (CMC) 95 % of control | dose: 300.0 mg/kg/injection, schedule: Q01DX009 (ip), vehicle: carboxymethylcellulose (CMC) 92 % of control | dose: 400.0 mg/kg/injection, schedule: Q04DX003 (ip), vehicle: carboxymethylcellulose (CMC) 92 % of control

C1=C(c2ccccc2)c2ccccc2C1(c1ccccc1)c1ccccc1
inactive: dose: 100.0 mg/kg/injection, schedule: Q04DX003 (ip), vehicle: saline with Tween-80 97 % of control | dose: 200.0 mg/kg/injection, schedule: Q04DX003 (ip), vehicle: saline with Tween-80 94 % of control | dose: 400.0 mg/kg/injection, schedule: Q04DX003 (ip), vehicle: saline with Tween-80 94 % of control

COc1ncc(F)c(OC)n1
inactive: [1] 100 % of control | [2] 96 % of control | [3] 91 % of control

CC(=O)Nc1ccc(/C=N/NC(=S)Nc2cccc3cccnc23)cc1
inactive: [1] 92 % of control | [2] 97 % of control | [3] 97 % of control
